A short description of series [1]: Solubility determinations in purified water and buffers. The class given is physicochemical. The settings on record: for solubility at 24 h: 18 °C, read-out: Measured solubilities (mg/ml), bound; for solubility at 24 h / Measured solubilities (mg/ml), value in brackets / Measured solubilities (mg/ml), bound: 18-23° C., t = 24 h. Here is the method:
The solubilities of crystalline form B and the amorphous form of the compound of formula (1) were determined in purified water and buffers at the same concentration up to 24 h stir time at 18 to 23° C.
The samples of the compound of formula (1) (50 mg) were each suspended in purified water (2 mL) or the appropriate buffer and stirred at ambient temperature (18-23° C.) for 20 to 24 h. After this time the slurries were centrifuged, diluted if appropriate by HPLC sample diluent (acetonitrile/water, 1/1, v/v) and analysed by HPLC peak area. The measured values were compared against a relevant calibration curve for the compound of formula (1). The approximate solubilities were calculated and compensation factors were applied for the appropriate dilution factors and % w/w assays. The dilution factor ensured that the peak area values fell within the desired calibration curve ranges.
The plug of solid that remained in the centrifuge tube was dried in vacuum oven and analysed by XRPD.
The preparations of the buffers used in the study are described below:
pH 1.2—Mix 50 mL of 0.2M potassium chloride solution with 85 mL of 0.2M hydrochloric acid solution.
pH 2—Mix 50 mL of 0.2M potassium chloride solution with 13 mL of 0.2M hydrochloric acid solution.
pH 3—Mix 100 mL of 0.1M potassium hydrogen phthalate with 44.6 mL of 0.1M hydrochloric acid solution.
pH 4—Mix 100 mL of 0.1M potassium hydrogen phthalate with 0.2 mL of 0.1M hydrochloric acid solution.
pH 5—Mix 100 mL of 0.1M potassium hydrogen phthalate with 45.2 mL of 0.1M sodium hydroxide solution.
pH 6—Mix 100 mL of 0.1M potassium dihydrogen orthophosphate with 11.2 mL of 0.1M sodium hydroxide solution.
pH 7—Mix 100 mL of 0.1M potassium dihydrogen orthophosphate with 58.2 mL of 0.1M sodium hydroxide solution.
pH 8—Mix 100 mL of 0.1M potassium dihydrogen orthophosphate with 93.4 mL of 0.1M sodium hydroxide solution.

The nature of series [2]: Solubility determinations in non-aqueous solvents. The class given is physicochemical. The settings on record: for solubility at 72 h: organic solvent or mixture, thermodynamic from solid, read-out: Estimated maximum solubilities (mg/ml), at 18 to 23° C. How it is done:
Form B of Compound (1), prepared as described in Example 3, was charged to the appropriate solvent (2 ml) at intervals of approximately 1 hour. The solutions were purposefully saturated and allowed to stir over 72 h at 18 to 23° C. After this time, the suspensions were centrifuged, their supernatants were sampled, diluted accordingly and the peak areas of the corresponding analytes were measured by HPLC and compared against those of the standard calibrants. The approximate solubilities were calculated and solubilities were physically checked on an anhydrous solvent free basis to confirm that the results were consistent.
The saturated solutions were centrifuged and 100 μl of the clarified supernatant was added to 250 ml volumetric (ethanol) or 100 ml volumetrics (remainder) and made to volume with sample diluent. The diluted samples were then analysed by HPLC peak area and the estimated maximum solubilities were calculated and are reported in the table below.
To confirm the estimated solubilities were of the right order of magnitude solutions were prepared up to the estimated maximum measured concentrations and the mixtures were stirred overnight under the same conditions to confirm dissolution.

In series [3] the test system is Human melanoma cell line A375. Put plainly: Anti-proliferative activity (Alamar Blue). Format: cell-based. The settings on record: A-375, 96 h, A375 cells, 4 days incubation. How it is done: The anti-proliferative activities of the compound of the invention was determined by measuring the ability of the compound of formula (1) to inhibit growth in the Human melanoma cell line A375.
Cell proliferation was determined by measuring the conversion of rezasurin (Alamar Blue) to resorufin in reponse to mitochondrial activity (Nociari, M. M, Shalev, A., Benias, P., Russo, C. Journal of Immunological Methods 1998, 213, 157-167). A375 cells (American Type Culture Collection, Teddington, UK) were grown in Dulbecco's Modified Eagle Medium+10% FBS. Each well of a black 96-well flat-bottomed plate was seeded with 2×10^3 cells in 200 μl of complete culture medium one day before the compound treatment. Cells were incubated with compound in 0.1% (v/v) dimethyl sulfoxide (DMSO) for 4 days before addition of 20 μl Alamar blue. After a further 6 h incubation at 37° C. the plate was read on a Spectramax Gemini reader (Molecular Devices; excitation 535 nm, emission 590 nm). GI50 values were calculated using a sigmoidal dose response equation (Prism GraphPad software, La Jolla, Calif., USA).

≈ marks a conversion by molar mass, not a printed value. Read-outs that look alike come from different tables or passages of the source.

As for `COc1cc(F)cc([C@@H](CO)NC(=O)[C@@H](C)N2Cc3ccc(-c4nc(NC5CCOCC5)ncc4Cl)cc3C2=O)c1` [(2R)-2-(6-{5-chloro-2-[(oxan-4-yl)amino]pyrimidin-4-yl}-1-oxo-2,3-dihydro-1H-isoindol-2-yl)-N-[(1S)-1-(3-fluoro-5-methoxyphenyl)-2-hydroxyethyl]propanamide], the solubility in series [1] (buffers at pH 1.2 to 8.0, 20.5 °C, pH 1.2, aqueous buffer, thermodynamic from solid, buffers at pH 1.2 to 8.0, read-out: Solubility in buffers (conclusion: practically insoluble)) is less than 100 µg/mL. Moreover, the solubility at 24 h in series [1] (pH 1.2 buffer, pH 1.2, simulated gastric fluid, thermodynamic from solid, pH 1.2 Buffer) is no less than 0.1 mg/mL; in series [1] (pH 2 buffer, pH 2, simulated gastric fluid, thermodynamic from solid, pH 2 Buffer), less than 0.1 mg/mL; in series [1] (pH 3 buffer, pH 3, aqueous buffer, thermodynamic from solid, pH 3 Buffer) it was less than 0.1 mg/mL; in series [1] (pH 4 buffer, pH 4, aqueous buffer, thermodynamic from solid, pH 4 Buffer) it was less than 0.1 mg/mL; in series [1] (pH 5 buffer, pH 5, aqueous buffer, thermodynamic from solid, pH 5 Buffer), less than 0.1 mg/mL; in series [1] (pH 6 buffer, pH 6, aqueous buffer, thermodynamic from solid, pH 6 Buffer), less than 0.1 mg/mL. The solubility at 24 h in series [1] (pH 7 buffer, pH 7, aqueous buffer, thermodynamic from solid, pH 7 Buffer) is less than 0.1 mg/mL; in series [1] (pH 8 buffer, pH 8, aqueous buffer, thermodynamic from solid, pH 8 Buffer) it was less than 0.1 mg/mL; in series [1] (purified water, water, thermodynamic from solid, Purified water), less than 0.1 mg/mL. In addition, the solubility at 72 h in series [2] (PEG 400, 18 °C) is 229 mg/mL (≈ 392000 µM); in series [2] (ethanol, 18 °C) it was 337 mg/mL (≈ 577000 µM); in series [2] (glycerol, 18 °C), 5 mg/mL (≈ 8560 µM); in series [2] (propylene glycol, 18 °C), 289 mg/mL (≈ 495000 µM).
`COc1cc(F)cc([C@@H](CO)NC(=O)[C@@H](C)N2Cc3ccc(-c4nc(NC5CCOCC5)ncc4Cl)cc3C2=O)c1` [Amorphous Form of the Compound of Formula (1)] [(2R)-2-(6-{5-chloro-2-[(oxan-4-yl)amino]pyrimidin-4-yl}-1-oxo-2,3-dihydro-1H-isoindol-2-yl)-N-[(1S)-1-(3-fluoro-5-methoxyphenyl)-2-hydroxyethyl]propanamide]: the “Measured solubilities (mg/ml), value in brackets” value is “(0.0234 mg/ml” in series [1] (Purified water); “(0.1249 mg/ml” in series [1] (pH 1.2 Buffer); “(0.0226 mg/ml” in series [1] (pH 2 Buffer); “(0.0257 mg/ml” in series [1] (pH 3 Buffer); “(0.0418 mg/ml” in series [1] (pH 4 Buffer); “(0.0268 mg/ml” in series [1] (pH 5 Buffer). Besides, the entries for the “Measured solubilities (mg/ml), value in brackets” value in series [1] (pH 6 Buffer), in series [1] (pH 7 Buffer) and in series [1] (pH 8 Buffer) were “(0.0149 mg/ml”, “(0.0136 mg/ml” and “(0.0138 mg/ml”, respectively.
Turning to `COc1cc(F)cc([C@@H](CO)NC(=O)[C@@H](C)N2Cc3ccc(-c4nc(NC5CCOCC5)ncc4Cl)cc3C2=O)c1` [Crystalline Form B of the Compound of Formula (1)] [(2R)-2-(6-{5-chloro-2-[(oxan-4-yl)amino]pyrimidin-4-yl}-1-oxo-2,3-dihydro-1H-isoindol-2-yl)-N-[(1S)-1-(3-fluoro-5-methoxyphenyl)-2-hydroxyethyl]propanamide], the “Measured solubilities (mg/ml), bound” value in series [1] (Purified water), in series [1] (pH 1.2 Buffer), in series [1] (pH 2 Buffer), in series [1] (pH 3 Buffer), in series [1] (pH 4 Buffer) and in series [1] (pH 5 Buffer) was less than 0.1 mg/mL in each case. For the same compound, the “Measured solubilities (mg/ml), bound” value in series [1] (pH 6 Buffer), in series [1] (pH 7 Buffer) and in series [1] (pH 8 Buffer) was less than 0.1 mg/mL throughout. For the same compound, the “Measured solubilities (mg/ml), value in brackets” value in series [1] (pH 2 Buffer) was “(0.0034 mg/ml”; in series [1] (pH 3 Buffer) it was “(0.0045 mg/ml”; in series [1] (pH 4 Buffer), “(0.0049 mg/ml”; in series [1] (pH 5 Buffer), “(0.0031 mg/ml”; in series [1] (pH 6 Buffer), “(0.0027 mg/ml”; in series [1] (pH 7 Buffer), “(0.0017 mg/ml”. Besides, the “Measured solubilities (mg/ml), value in brackets” value in series [1] (pH 8 Buffer) is recorded as “(0.0020 mg/ml”.
For `COc1cc(F)cc([C@@H](CO)NC(=O)[C@@H](C)N2Cc3ccc(-c4nc(NC5CCOCC5)ncc4Cl)cc3C2=O)c1` [compound of formula (1), (2R)-2-(6-{5-chloro-2-[(oxan-4-yl)amino]pyrimidin-4-yl}-1-oxo-2,3-dihydro-1H-isoindol-2-yl)-N-[(1S)-1-(3-fluoro-5-methoxyphenyl)-2-hydroxyethyl]propanamide], it took 3.4 nM to inhibit growth in series [3] by half (GI50). In series [2] (ethanol, PEG 400 and propylene glycol than in water), the “Solubility in ethanol, PEG 400 and propylene glycol compared with water” value was “significantly greater solubility”.

(Values after US11142518B2, “6-pyrimidin-isoindole derivative as ERK1/2 inhibitor” (OTSUKA PHARMACEUTICAL CO., LTD., priority 2017, dated 2021).)
